Columns and labels:
mouse p38α mRNA = experiment: Mouse p38α mRNA levels in bEND.3 cells, quantitative real-time PCR; format: cell-based; set-up: % Inhib. mouse p38α: concentration or dose not given beside the values
Summary of the method: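 Mouse bEND.3 cells, antisense oligonucleotide-treated; p38α mRNA measured by one-step real-time RT-PCR (RT 30 min at 48 °C, then 40 cycles) with a FAM/TAMRA probe. Levels normalized to GAPDH or RiboGreen total RNA, and percent inhibition derived from standard curves of untreated-control mRNA.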

rat p38α mRNA = experiment: Rat p38α mRNA levels in NR-8383 cells, quantitative real-time PCR; format: cell-based; conditions: 300 nM oligonucleotide with FuGENE 6, 24 hours, mRNA by quantitative real-time PCR, average of two experiments
p38α mRNA = experiment: Reduction of p38α mRNA in fibroblasts; format: cell-based; conditions: read-out: IC50 for reducing p38α mRNA
p38α [1] = experiment: p38α knock-down in mouse T cell line EL4, Western blotting; format: cell-based
p38α [2] = experiment: p38α knock-down in mouse macrophage cell line RAW264.7, Western blotting; format: cell-based
[3] = system: ovalbumin (OVA)-induced airway hyperresponsiveness; experiment: Mouse model of allergic inflammation (OVA), intratracheal oligonucleotide administration; format: in vivo; conditions: OVA mice
Procedure: In the mouse model of allergic inflammation, mice were sensitized and challenged with aerosolized chicken ovalbumin (OVA). Airway responsiveness was assessed by inducing airflow obstruction with a methacholine aerosol using a noninvasive method. This methodology utilized unrestrained conscious mice that are placed into the main chamber of a plthysmograph (Buxco Electronics, Inc., Troy, N.Y.). Pressure differences between this chamber and a reference chamber were used to extrapolate minute volume, breathing frequency and enhanced pause (Penh). […] This parameter closely correlates with lung resistance as measured by traditional invasive techniques using ventilated animals (Hamelmann et al., 1997). […]
For intratracheal administration of ISIS 101757, female Balb/c mice (Charles Rivers Laboratory, Taconic Farms, N.Y.) were maintained in micro-isolator cages housed in a specific pathogen-free (SPF) facility. […] Animals were analyzed about 24 hours following the last nebulization using the Buxco electronics Biosystem. Lung function (Penh), lung histology (cell infiltration and mucus production), target mRNA reduction in the lung, inflammation (BAL cell type & number, cytokine levels), spleen weight and serum AST/ALT were determined. […]

[4] = mouse, in vivo
Procedure: For the aerosol studies, the protocol described above was slightly modified. Male Balb/c mice were injected IP with OVA (20 μg) in aluminum hydroxide on days 0 and 14. Aerosol dosing was performed with nebulized sterile saline, antisense oligonucleotide or mismatched control oligonucleotide using 25, 125 and 250 μg/ml solutions (5 mg/kg) for 30 min. on days 14-20 in a closed chamber. Aerosol lung challenge was carried out with nebulized saline or 1% OVA for 20 min. on days 18, 19 and 20. BAL fluid was collected at 24 hr post-last lung challenge (cell differentials) or at 2-12 h post-challenge (cytokine analysis). AHR was measured 24 hours after OVA challenge. Mice were exposed to aerosolized methacholine 24 hr post-last lung challenge from 2-80 mg/ml for 3 min. until a 200% increase in Penh was achieved.

For “ISIS 101757: antisense oligonucleotide targeted to mouse p38α, SEQ ID NO 177; 2′-MOE gapmer, all phosphorothioate linkages (antisense AGGTGCTCAGGACTCCATTT; all phosphorothioate, sugars by position and methylation of C not given here; 2'-MOE gapmer)”, which “% Inhib. mouse p38α” value (mouse p38α mRNA; bEND.3 cells, mRNA by quantitative real-time PCR, average of two experiments) is on record?
Its value is 88%.

And the IC50 (mouse p38α mRNA; endothelial cells, read-out: IC50 for reducing p38α mRNA)?
Its IC50 is < 50 nM.

And the “% Inhib. rat p38α” value (rat p38α mRNA)?
The value was 53%.

What about the IC50 (p38α mRNA) of the same substance?
Its IC50 is ~250 nM.

And the p38α knock-down effect (p38α [1])?
The p38α knock-down effect was “confirmed”.

What about the p38α knock-down effect (p38α [2]) of the same substance?
Its p38α knock-down effect is “confirmed”.

What about the “Penh response to methacholine (50 mg/ml) challenge” value [3] of the same substance?
The value was “dose-dependent inhibition”.

And the “Oligonucleotide levels in lung tissue sufficient to achieve the pharmacological effects” value [4]?
Its value is “up to 1 μg/g”.
